The numbers were not newly measured in US12133876B2, “TryNOVID boosts immune system against viruses and variants” (priority 2022, dated 2024), which cites them from elsewhere.

One data set concerns COVID-19. As to conditions: high dose; patients requiring hospitalization due to proven COVID-19; plus best-available therapy versus best-available therapy.
A further data set relates to SARS-COV-2. Particulars: binding to SARS-COV-2 (Kulkarni et al., 2020).
The next data set has as its system enveloped viruses. Particulars: Coronavirus, HIV, Measles virus, Herpes simplex virus type 1 and 2, Influenza virus and other listed enveloped viruses (Lieberman et al., 2006).

For the compound `C=C1CC[C@H](O)C/C1=C/C=C1\CCC[C@]2(C)[C@@H]([C@H](C)CCCC(C)(C)O)CC[C@@H]12` [calcifediol, 25-hydroxyvitamin D], the “need for ICU treatment” value with COVID-19 is “significantly reduced”. On to `Cc1ccc(C(C)C)c(O)c1` [thymol], for which the “binding affinities in molecular docking” value in the data set on SARS-COV-2 is on record as “good binding affinities”. As for `CCCCCCCCCCCC(=O)OCC(O)CO` (stereo not shown) [Monolaurin, glycerol monolaurate], the “inactivation of enveloped viruses” value in the data set on enveloped viruses is “able to inactivate”. Turning to `C=C1C2CCC(C2)C1(C)C` (stereo not shown) [camphene], in the data set on SARS-COV-2, the “binding affinities in molecular docking” value was “good binding affinities”. As for `CC(C)=C1CC[C@@H](C)CC1=O` [pulegone], the “binding affinities in molecular docking” value in the data set on SARS-COV-2 is “good binding affinities”. Consider `C=CC(C)=CCC=C(C)C` [ocimene], for which, in the data set on SARS-COV-2, the “binding affinities in molecular docking” value is given as “good binding affinities”. Take `CC1CCC(C(C)C)C(O)C1` (stereo not shown) [menthol]: the “binding affinities in molecular docking” value in the data set with SARS-COV-2 is listed as “good binding affinities”.
